Data taken from ChEMBL document CHEMBL4308841, “Synthesis, in vitro antiproliferative activity, and kinase inhibitory effects of pyrazole-containing diarylureas and diarylamides” (Eur J Med Chem, 2018).

Experiments:
UACC-257 = experiment: Growth inhibition of human UACC257 cells incubated for 48 hrs by sulforhodamine B assay; type: functional, cell-based; conditions: UACC-257, 48 h
MDA-MB-231 = experiment: Growth inhibition of human MDA-MB-231 cells incubated for 48 hrs by sulforhodamine B assay; type: functional, cell-based; conditions: MDA-MB-231, 48 h
CCRF-CEM = experiment: Growth inhibition of human CCRF-CEM cells assessed as cell growth at 1 uM incubated for 48 hrs by sulforhodamine B assay relative to control; type: functional; conditions: read-out: Activity
BT-549 [1] = experiment: Growth inhibition of human BT549 cells assessed as cell growth at 1 uM incubated for 48 hrs by sulforhodamine B assay relative to control; type: functional; conditions: BT-549, 48 h, read-out: Activity
KM12 [2] = experiment: Growth inhibition of human KM12 cells assessed as cell growth at 0.01 uM incubated for 48 hrs by sulforhodamine B assay relative to control; type: functional; conditions: KM12, 48 h, read-out: Activity
KM12 [3] = experiment: Growth inhibition of human KM12 cells assessed as cell growth at 0.1 uM incubated for 48 hrs by sulforhodamine B assay relative to control; type: functional; conditions: KM12, 48 h, read-out: Activity
K562 = experiment: Growth inhibition of human K562 cells incubated for 48 hrs by sulforhodamine B assay; type: functional, cell-based; conditions: K562, 48 h
COLO 205 = experiment: Growth inhibition of human COLO205 cells assessed as cell growth at 0.01 uM incubated for 48 hrs by sulforhodamine B assay relative to control; type: functional; conditions: COLO 205, 48 h, read-out: Activity
HCC 2998 = experiment: Growth inhibition of human HCC2998 cells assessed as cell growth at 100 uM incubated for 48 hrs by sulforhodamine B assay relative to control; type: functional; conditions: HCC 2998, 48 h, read-out: Activity
OVCAR-8 = experiment: Growth inhibition of human OVCAR8 cells incubated for 48 hrs by sulforhodamine B assay; type: functional, cell-based; conditions: OVCAR-8, 48 h
SW-620 = experiment: Growth inhibition of human SW620 cells assessed as cell growth at 0.1 uM incubated for 48 hrs by sulforhodamine B assay relative to control; type: functional; conditions: SW-620, 48 h, read-out: Activity
DU-145 = experiment: Growth inhibition of human DU145 cells assessed as cell growth at 0.01 uM incubated for 48 hrs by sulforhodamine B assay relative to control; type: functional; conditions: DU-145, 48 h, read-out: Activity
SF-539 [4] = experiment: Growth inhibition of human SF539 cells assessed as cell growth at 0.01 uM incubated for 48 hrs by sulforhodamine B assay relative to control; type: functional; conditions: SF-539, 48 h, read-out: Activity
SF-539 [5] = experiment: Growth inhibition of human SF539 cells assessed as cell growth at 1 uM incubated for 48 hrs by sulforhodamine B assay relative to control; type: functional; conditions: SF-539, 48 h, read-out: Activity
HCT-116 = experiment: Growth inhibition of human HCT116 cells incubated for 48 hrs by sulforhodamine B assay; type: functional, cell-based; conditions: HCT-116, 48 h
UO-31 = experiment: Growth inhibition of human UO31 cells incubated for 48 hrs by sulforhodamine B assay; type: functional, cell-based; conditions: UO-31, 48 h
OVCAR-3 = experiment: Growth inhibition of human OVCAR3 cells assessed as cell growth at 0.01 uM incubated for 48 hrs by sulforhodamine B assay relative to control; type: functional; conditions: OVCAR-3, 48 h, read-out: Activity
MDA-MB-468 = experiment: Growth inhibition of human MDA-MB-468 cells assessed as cell growth at 1 uM incubated for 48 hrs by sulforhodamine B assay relative to control; type: functional; conditions: MDA-MB-468, 48 h, read-out: Activity
A549 = experiment: Growth inhibition of human A549/ATCC cells assessed as cell growth at 0.1 uM incubated for 48 hrs by sulforhodamine B assay relative to control; type: functional; conditions: A549, 48 h, read-out: Activity
HOP-62 = experiment: Growth inhibition of human HOP62 cells assessed as cell growth at 0.01 uM incubated for 48 hrs by sulforhodamine B assay relative to control; type: functional; conditions: HOP-62, 48 h, read-out: Activity
RXF 393 = experiment: Growth inhibition of human RXF393 cells assessed as cell growth at 0.1 uM incubated for 48 hrs by sulforhodamine B assay relative to control; type: functional; conditions: RXF 393, 48 h, read-out: Activity
SK-MEL-2 = experiment: Growth inhibition of human SK-MEL-2 cells assessed as cell growth at 100 uM incubated for 48 hrs by sulforhodamine B assay relative to control; type: functional; conditions: SK-MEL-2, 48 h, read-out: Activity
MCF7 = experiment: Growth inhibition of human MCF7 cells assessed as cell growth at 0.1 uM incubated for 48 hrs by sulforhodamine B assay relative to control; type: functional; conditions: MCF7, 48 h, read-out: Activity
MOLT-4 = experiment: Growth inhibition of human MOLT4 cells assessed as cell growth at 0.1 uM incubated for 48 hrs by sulforhodamine B assay relative to control; type: functional; conditions: MOLT-4, 48 h, read-out: Activity
NCI-H23 = experiment: Growth inhibition of human NCI-H23 cells assessed as cell growth at 0.1 uM incubated for 48 hrs by sulforhodamine B assay relative to control; type: functional; conditions: NCI-H23, 48 h, read-out: Activity
M14 = experiment: Growth inhibition of human M14 cells assessed as cell growth at 100 uM incubated for 48 hrs by sulforhodamine B assay relative to control; type: functional; conditions: M14, 48 h, read-out: Activity
BT-549 [6] = experiment: Growth inhibition of human BT549 cells incubated for 48 hrs by sulforhodamine B assay; type: functional, cell-based; conditions: BT-549, 48 h
[7] = read-out: LC50 (the source's name)
[8] = read-out: pLC50 (the source's name) (converted)

Structure (SMILES): COc1cc(Cl)cc(-c2nn(-c3cccc(NC(=O)Nc4cc(C(F)(F)F)cc(C(F)(F)F)c4)c3)cc2-c2ccncc2)c1
- IC50 (UACC-257): 410 nM
- GI50 (UACC-257; read-out: GI50): 412 nM
- CC50 (UACC-257; [7]): 70 nM
- TGI (UACC-257; read-out: TGI): 1840 nM
- GI50 (UACC-257; read-out: pGI50 (converted)): 407 nM
- CC50 (UACC-257; [8]): 7080 nM
- TGI (UACC-257; read-out: pTGI (converted)): 1860 nM
- IC50 (MDA-MB-231): 460 nM
- GI50 (MDA-MB-231; read-out: GI50): 456 nM
- TGI (MDA-MB-231; read-out: TGI): 1860 nM
- GI50 (MDA-MB-231; read-out: pGI50 (converted)): 457 nM
- CC50 (MDA-MB-231; [8]): 5370 nM
- TGI (MDA-MB-231; read-out: pTGI (converted)): 1860 nM
- growth at 1 µM (CCRF-CEM): 5%
- growth at 1 µM (BT-549 [1]): 54%
- growth at 0.01 µM (KM12 [2]): 97%
- growth at 0.1 µM (KM12 [3]): 98%
- IC50 (K562): 350 nM
- GI50 (K562; read-out: GI50): 351 nM
- LC50 (K562; read-out: LC50): > 100000 nM
- TGI (K562; read-out: TGI): 5840 nM
- GI50 (K562; read-out: pGI50 (converted)): 355 nM
- LC50 (K562; read-out: pLC50 (converted)): > 100000 nM
- TGI (K562; read-out: pTGI (converted)): 5890 nM
- growth at 0.01 µM (COLO 205): 98%
- growth at 100 µM (HCC 2998): -70%
- IC50 (OVCAR-8): 390 nM
- GI50 (OVCAR-8; read-out: GI50): 391 nM
- TGI (OVCAR-8; read-out: TGI): 2190 nM
- GI50 (OVCAR-8; read-out: pGI50 (converted)): 389 nM
- CC50 (OVCAR-8; [8]): 47900 nM
- TGI (OVCAR-8; read-out: pTGI (converted)): 2190 nM
- growth at 0.1 µM (SW-620): 94%
- growth at 0.01 µM (DU-145): 104%
- growth at 0.01 µM (SF-539 [4]): 100%
- growth at 1 µM (SF-539 [5]): 59%
- IC50 (HCT-116): 330 nM
- GI50 (HCT-116; read-out: GI50): 332 nM
- TGI (HCT-116; read-out: TGI): 1270 nM
- GI50 (HCT-116; read-out: pGI50 (converted)): 331 nM
- CC50 (HCT-116; [8]): 6610 nM
- TGI (HCT-116; read-out: pTGI (converted)): 1260 nM
- IC50 (UO-31): 260 nM
- GI50 (UO-31; read-out: GI50): 254 nM
- CC50 (UO-31; [7]): 59.7 nM
- TGI (UO-31; read-out: TGI): 1580 nM
- GI50 (UO-31; read-out: pGI50 (converted)): 263 nM
- CC50 (UO-31; [8]): 6920 nM
- TGI (UO-31; read-out: pTGI (converted)): 1580 nM
- growth at 0.01 µM (OVCAR-3): 105%
- growth at 1 µM (MDA-MB-468): 15%
- growth at 0.1 µM (A549): 95%
- growth at 0.01 µM (HOP-62): 93%
- growth at 0.1 µM (RXF 393): 101%
- growth at 100 µM (SK-MEL-2): -83%
- growth at 0.1 µM (MCF7): 91%
- growth at 0.1 µM (MOLT-4): 87%
- growth at 0.1 µM (NCI-H23): 95%
- growth at 100 µM (M14): -82%
- IC50 (BT-549 [6]): 2220 nM
- GI50 (BT-549 [6]; read-out: GI50): 2220 nM
- TGI (BT-549 [6]; read-out: TGI): 7140 nM
- GI50 (BT-549 [6]; read-out: pGI50 (converted)): 2820 nM
- CC50 (BT-549 [6]; [8]): 61700 nM
- TGI (BT-549 [6]; read-out: pTGI (converted)): 7080 nM
